Results reported in paper PMC5244392, “Interspecies cathelicidin comparison reveals divergence in antimicrobial activity, TLR modulation, chemokine induction and regulation of phagocytosis” (Scientific Reports, 2017).

Experiments:
E. coli O78 = assay: Bacterial growth delay (Bioscreen C), E. coli; format: cell-based, Escherichia coli; conditions: for Cmax, E. coli, DMEM: DMEM + FCS (10%); for Cmax, E. coli, DMEM / Cmax: cathelicidin concentration resulting in a delay in bacterial growth with minimal 10 hours, E. coli, MHB: 1 × 10^6 CFU/ml, peptide 0.31-20 μM, 16 h, 37 °C, — = no Cmax reached up to 20 μM; for Cmax, E. coli, DMEM / Cmax: cathelicidin concentration resulting in a delay in bacterial growth with minimal 10 hours, E. coli, MHB / Max: hours growth delay with 20 μM cathelicidin, E. coli, DMEM / Max: hours growth delay with 20 μM cathelicidin, E. coli, MHB: N = 4; for Delay of the growth of E. coli / Summary class, antimicrobial activity E. coli DMEM / Max: hours growth delay with 20 μM cathelicidin, E. coli, DMEM: DMEM + FCS; for Delay of the growth of E. coli: peptide concentration not given (0.31-20 μM tested); for Summary class, antimicrobial activity E. coli DMEM / Summary class, antimicrobial activity E. coli MHB: − is not defined in the key; for Cmax: cathelicidin concentration resulting in a delay in bacterial growth with minimal 10 hours, E. coli, MHB: 200 RPM; for Cmax: cathelicidin concentration resulting in a delay in bacterial growth with minimal 10 hours, E. coli, MHB / Max: hours growth delay with 20 μM cathelicidin, E. coli, MHB: time to OD 0.6 vs control; for Max: hours growth delay with 20 μM cathelicidin, E. coli, DMEM / Max: hours growth delay with 20 μM cathelicidin, E. coli, MHB: 20 μM peptide, given if no Cmax was reached
Protocol: (§1) E. coli O78 (Zoetis Animal Health, Kalamazoo, MI, USA), E. coli ATCC 25922, Staphylococcus aureus ATCC 29213, and methicillin resistant Staphylococcus aureus (MRSA) (WKZ-2, human clinical isolate) were grown overnight from a glycerol stock in Mueller Hinton Broth (MHB) (Becton Dickinson, USA). Before use, bacteria were grown to mid-log phase in MHB for 2 hours at 37 °C, 200 RPM. Murine RAW264.7 macrophages (ATCC-TIB-71) were obtained from the American Type Culture Collection (ATCC, Manassas, VA, USA) and cultured in DMEM (41966-029; Thermo Fisher Scientific, Waltham, MA, USA) supplemented with 10% FCS (Bodinco B.V., Alkmaar, the Netherlands) (DMEM + FCS) at 37 °C, 5.0% CO2. Cells were seeded in 96-wells plates at 5 × 10^5 cells/ml or 12-wells plates at 2 × 10^5/ml for adherence overnight prior to stimulation.
(§2) Peptides (0.63 to 40 μM) and bacteria mid-log cultures (2 * 10^6 CFU/ml) were prepared in MHB or DMEM + FCS and mixed (100 μl peptide + 100 μl bacterial culture) in a Bioscreen C analyzer plate (Oy Growth Curves Ab Ltd, Helsingfors, Finland). Plates were placed in a Bioscreen C analyzer (Oy Growth Curves Ab Ltd) and bacteria were grown for 16 h at 37 °C with 200 RPM. The OD was measured every 15 minutes using a wideband filter (450–580 nm) to measure bacterial growth. The time needed grow above an OD of 0.6 was determined for all concentrations. Activity of peptides was expressed as the Cmax, the concentration of peptide required to delay the growth for 10 h compared to the control. Or, for peptides with low activity (no Cmax), activity was expressed as the hours of growth delay at 20 μM. Unlike the classic MIC and MBC determination used in microbiology, this method also enabled comparison of peptides with low antibacterial activity.
(§3) Twelve cathelicidins from 6 different species were selected for this study, namely: human LL-37, murine CRAMP, dog K9CATH, equine CATH (eCATH)-1, -2 and -3, chicken CATH (chCATH)-1, -2, and -3, porcine PMAP-23 and -36 and PR-39 (Table 1). Antimicrobial activity against E. coli and MRSA was directly compared under standardized conditions in MHB, a medium optimized for bacterial growth. Bacterial growth delay was defined as the delay in hours for peptide-treated bacteria to reach an OD of 0.6, compared to the non-treated control. Cmax is the minimal concentration needed to delay growth for a minimum of 10 hours compared to the non-treated control (Table 1 and Fig. 1A).
(§4) Figure 1 Antibacterial activity of cathelicidins. E. coli and MRSA (1 × 10^6 CFU/ml) of were grown in MHB or DMEM ± FCS for 16 hours under constant shaking (200 RPM). Every 15 minutes the OD was measured. Growth delay was defined as the time needed for peptide-treated bacteria to grow above an OD of 0.6 compared to the control bacteria (no peptide added) (A). Cathelicidins were tested in different concentrations (0.31 μM, 0.63 μM, 1.25 μM, 2.5 μM, 5 μM, 10 μM, and 20 μM) to determine the antimicrobial activity in MHB against E. coli (B) or MRSA (C) and in more physiological medium DMEM + FCS (D,E). Results are presented as average +/− SEM (N = 4).

[1] = system: methicillin resistant Staphylococcus aureus (MRSA) (WKZ-2, human clinical isolate); assay: Bacterial growth delay (Bioscreen C), MRSA; format: cell-based; conditions: for Cmax, MRSA, DMEM / Summary class, antimicrobial activity S. aureus DMEM / Max: hours growth delay with 20 μM cathelicidin, MRSA, DMEM: DMEM + FCS; for Cmax, MRSA, DMEM / Cmax, MRSA, MHB: 1 × 10^6 CFU/ml, peptide 0.31-20 μM, 16 h, 37 °C, — = no Cmax reached up to 20 μM; for Cmax, MRSA, DMEM / Cmax, MRSA, MHB / Max: hours growth delay with 20 μM cathelicidin, MRSA, DMEM / Max: hours growth delay with 20 μM cathelicidin, MRSA, MHB: N = 4; for Summary class, antimicrobial activity S. aureus DMEM / Summary class, antimicrobial activity S. aureus MHB: MRSA, − is not defined in the key; for Max: hours growth delay with 20 μM cathelicidin, MRSA, DMEM / Max: hours growth delay with 20 μM cathelicidin, MRSA, MHB: 20 μM peptide, given if no Cmax was reached
Protocol: as §1, §2, §3, §4

RAW264.7 cells = assay: Phagocytosis assay with fluorescent latex beads; format: cell-based, murine; conditions: 30 min; for Summary class, phagocytosis / Effect on bead uptake (phagocytosis), in words: latex beads 10 per cell; for Summary class, phagocytosis: 37 °C, MFI corrected for 0 °C, peptide 0.31-5 μM, − = no significant effect, N = 3; for Effect on bead uptake (phagocytosis), in words: peptide 0.31, 1.25 and 5 μM
Protocol: Red fluorescent (λex 575 nm and λem 610 nm) carboxylate-modified polystyrene latex beads (0.5 μm; Sigma Aldrich, St. Louis, MO, USA) were washed three times with PBS and resuspended in culture medium. Peptide dilutions were prepared in culture medium and added to RAW264.7 cells, directly followed by the latex beads (ratio 10 beads to 1 cell). Cells were incubated for 30 minutes at 37 °C, 5% CO2 (energy-dependent uptake) or 0 °C (non-specific adherence), after which cells were washed extensively with ice-cold PBS supplemented with 1% FCS and 0.01% NaN3, to remove all free beads. After washing, cells were scraped and resuspended in FACS buffer (PBS supplemented with 0.5% BSA). Samples were measured with the BD FACSCanto II flow cytometer (BD Biosciences, San Jose, CA, USA) and analyzed with FlowJo software (Ashland, OR, USA). Mean fluorescence intensity (MFI), corrected for non-specific adherence, was used as an indicator for the number of beads taken up.
While the above-described functions of cathelicidins are well-known, relatively little is known about the influence of cathelicidins on phagocytosis. Therefore, RAW264.7 cells were incubated with fluorescent beads to study the effect of cathelicidins on phagocytosis. The uptake was corrected for fluorescence measured after incubation on ice instead of 37 °C, which inhibits the active process of phagocytosis. After 30 minutes, 90% of the RAW264.7 cells took up latex beads (Fig. 4A). Histograms exemplify changes in bead phagocytosis with different concentrations of K9CATH (Fig. 4B), eCATH-2 (Fig. 4C) and chCATH-3 (Fig. 4D). Effect of all cathelicidins are depicted by the average mean fluorescence intensity (MFI) in Fig. 4E.
Figure 4 Effects of cathelicidins on phagocytosis by RAW264.7 cells. RAW264.7 cells were incubated with cathelicidins (0.31 μM, 1.25 μM, and 5 μM) and red fluorescent latex beads (10 beads to 1 cell) at 37 °C (energy dependent uptake) or on ice (non-specific adherence) for 30 minutes. Histograms show control (no peptide present) bead uptake at 37 °C (gray, filled) and 0 °C (black line) (A), or uptake in presence of different concentrations of indicated cathelicidins (B–D); 0 μM (red, filled), 0.31 μM (black line), 1.25 μM (green line) or 5 μM (blue line). Uptake was quantified by determining the MFI after correction for 0 °C control (E). Results are presented as average +/− SEM (N = 3). Statistical differences were determined by Two-way ANOVA with Bonferroni post-hoc test.

Substance	Cmax, E. coli, DMEM (E. coli O78)	Delay of the growth of E. coli (E. coli O78)	Summary class, antimicrobial activity E. coli DMEM (E. coli O78)	Cmax: cathelicidin concentration resulting in a delay in bacterial growth with minimal 10 hours, E. coli, MHB (E. coli O78; MHB)	Summary class, antimicrobial activity E. coli MHB (E. coli O78; MHB)	Cmax, MRSA, DMEM [1]	Summary class, antimicrobial activity S. aureus DMEM [1]	Cmax, MRSA, MHB ([1]; MHB)	Summary class, antimicrobial activity S. aureus MHB ([1]; MHB)	Summary class, phagocytosis (RAW264.7 cells)	Effect on bead uptake (phagocytosis), in words (RAW264.7 cells)	Max: hours growth delay with 20 μM cathelicidin, E. coli, DMEM (E. coli O78)	Activity against E. coli in MHB, in words (E. coli O78; MHB, peptide up to 20 μM)	Max: hours growth delay with 20 μM cathelicidin, E. coli, MHB (E. coli O78; MHB)	Max: hours growth delay with 20 μM cathelicidin, MRSA, DMEM [1]	Max: hours growth delay with 20 μM cathelicidin, MRSA, MHB ([1]; MHB)	Increase of bead uptake (RAW264.7 cells; latex beads, not significant)	Activity against MRSA in MHB, in words ([1]; MHB, peptide up to 20 μM)
RFGRFLRKIRRFRPKVTITIQGSARF-NH2 [chCATH-2, chicken CATH-2, C-terminal amide, 26 residues, charge +9]	10 µM	at least 7 hours	+++ (+++ = Cmax at ≤20 μM)	5 µM	+++ (+++ = Cmax at ≤20 μM)	0.31 µM	+++ (+++ = Cmax at ≤20 μM)	2.5 µM	+++ (+++ = Cmax at ≤20 μM)	↓↓ (↓↓ = significant decrease ≤5 μM)	reduced bead-uptake in a dose-dependent manner	–	–	–	–	–	–	–
RLKELITTGGQKIGEKIRRIGQRIKDFFKNLQPREEKS [Peptide K9CATH, dog cathelicidin, 38 residues, charge +6]	–	–	–	–	–	–	+ (+ = >4 hours inhibition at 20 μM)	–	–	↓↓ (↓↓ = significant decrease ≤5 μM)	reduced bead-uptake in a dose-dependent manner	1.5 h	no or very little activity	3.0 h	4.5 h	0.5 h	–	–
RVKRFWPLVPVAINTVAAGINLYKAIRRK [chCATH-3, chicken CATH-3, 29 residues, charge +7]	–	–	+ (+ = >4 hours inhibition at 20 μM)	20 µM	+++ (+++ = Cmax at ≤20 μM)	0.31 µM	+++ (+++ = Cmax at ≤20 μM)	5 µM	+++ (+++ = Cmax at ≤20 μM)	–	did not affect bead uptake	5.5 h	–	–	–	–	–	–
KRRHWFPLSFQEFLEQLRRFRDQLPFP [eCATH-2, equine CATH-2, 27 residues, charge +4]	–	–	–	–	++ (++ = >8 hours inhibition at 20 μM)	–	–	–	–	–	–	2.0 h	–	9.0 h	3.5 h	1.5 h	~50%	–
RRRPRPPYLPRPRPPPFFPPRLPPRIPPGFPPRFPPRFP [PR-39, porcine proline-rich cathelicidin forming a polyproline helix, 39 residues, charge +10]	–	at least 7 hours	+ (+ = >4 hours inhibition at 20 μM)	20 µM	+++ (+++ = Cmax at ≤20 μM)	10 µM	+++ (+++ = Cmax at ≤20 μM)	–	–	–	did not affect bead uptake	7.0 h	–	–	–	0.5 h	–	no effect
Ac-GRFRRLRKKTRKRLKKIGKVLKWIPPIVGSIPLGCG [PMAP-36, porcine α-helical cathelicidin, N-acetylated, 36 residues, charge +13]	2.5 µM	at least 7 hours	+++ (+++ = Cmax at ≤20 μM)	5 µM	+++ (+++ = Cmax at ≤20 μM)	0.31 µM	+++ (+++ = Cmax at ≤20 μM)	10 µM	+++ (+++ = Cmax at ≤20 μM)	↓↓ (↓↓ = significant decrease ≤5 μM)	only reduced phagocytosis at 5 μM	–	–	–	–	–	–	–
GLLRKGGEKIGEKLKKIGQKIKNFFQKLVPQPEQ [CRAMP, murine cathelicidin, 34 residues, charge +6]	–	–	–	–	++ (++ = >8 hours inhibition at 20 μM)	–	+ (+ = >4 hours inhibition at 20 μM)	–	–	↓↓ (↓↓ = significant decrease ≤5 μM)	reduced bead-uptake in a dose-dependent manner	2.5 h	–	9.0 h	6.5 h	0.5 h	–	–
